Test [1] deals with DOHH2 cells. Kind of test: Cell proliferation assay (MTS), DOHH2 cells, 120 h. In kind it is cell-based. Particulars: Homo sapiens, DOHH-2, 120 h. In a few lines: (§1)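 Treatment lasts 72 h for RS4;11 and 120 h for DOHH2 cells seeded at 5000 per well in serum-containing RPMI-1640. A 2 h MTS step, halted with 10% SDS, precedes dual-wavelength absorbance reading and IC50 fitting.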

Test [2] relates to RS4;11 cells. Kind of test: Cell proliferation assay (MTS), RS4;11 cells, 72 h. In kind it is cell-based. Particulars: Homo sapiens, RS4-11, 72 h. In a few lines:
as §1

As usually defined, the IC50 is the point on the concentration scale where inhibition reaches its midpoint. Higher therefore signals a need for much substance.

Regarding `COC(=O)NC1CCN(C[C@@H]2COc3cc(S(=O)(=O)NC(=O)c4ccc(N5CCN(CC6=C(c7ccc(Cl)cc7)CC(C)(C)CC6)CC5)cc4Oc4cnc5[nH]ccc5c4)cc([N+](=O)[O-])c3N2)CC1` [Example 2-152, methyl (R)-(1-((7-(N-(2-((1H-pyrrolo[2,3-b]pyridin-5-yl)oxy)-4-(4-((4′-chloro-5,5-dimethyl-3,4,5,6-tetrahydro-[1,1′-biphenyl]-2-yl)meth-yl)piperazin-1-yl)benzoyl)sulfamoyl)-5-nitro-3,4-dihydro-2H-benzo[b][1,4]oxazin-3-yl)methyl)piperidin-4-yl)carbamate], the IC50 in test [1] and in test [2] was 1 nM in each case.
Regarding `CN=S1(=O)CCN(CC[C@@H]2COc3cc(S(=O)(=O)NC(=O)c4ccc(N5CCN(CC6=C(c7ccc(Cl)cc7)CC(C)(C)CC6)CC5)cc4Oc4cnc5[nH]ccc5c4)cc([N+](=O)[O-])c3N2)CC1` [Example 2-127], the IC50 amounted to 42 nM in test [1] and 23 nM in test [2].
Regarding `COC(=O)N1CCN(C[C@@H]2COc3cc(S(=O)(=O)NC(=O)c4ccc(N5CCN(CC6=C(c7ccc(Cl)cc7)CC(C)(C)CC6)CC5)cc4Oc4cnc5[nH]ccc5c4)cc([N+](=O)[O-])c3N2)CC1` [Example 2-93, methyl (R)-4-((7-(N-(2-((1H-pyrrolo[2,3-b]pyridin-5-yl)oxy)-4-(4-((4′-chloro-5,5-dimethyl-3,4,5,6-tetrahydro-[1,1′-biphenyl]-2-yl)methyl)piperazin-1-yl)benzoyl)sulfamoyl)-5-nitro-3,4-dihydro-2H-benzo[b][1,4]oxazin-3-yl)methyl)piperazine-1-carboxylate], the IC50 came to 16 nM in test [1] and 40 nM in test [2].
The corresponding values for `CC1(C)CCC(CN2CCN(c3ccc(C(=O)NS(=O)(=O)c4cc5c(c([N+](=O)[O-])c4)N[C@H](CCN4CCC(C)(O)CC4)C5)c(Oc4cnc5[nH]ccc5c4)c3)CC2)=C(c2ccc(Cl)cc2)C1` [Example 1-13, (S)-2-((1H-pyrrolo[2,3-b]pyridin-5-yl)oxy)-4-(4-((4′-chloro-5,5-dimethyl-3,4,5,6-tetra-hydro-[1,1′-biphenyl]-2-yl)methyl)piperazin-1-yl)-N-((2-(2-(4-hydroxy-4-methylpiper-idin-1-yl)ethyl)-7-nitroindolin-5-yl)sulfonyl) benzamide] are 91 nM and 74 nM.
The corresponding values for `CC1(C)CCC(CN2CCN(c3ccc(C(=O)NS(=O)(=O)c4cc5c(c([N+](=O)[O-])c4)N[C@@H](CO)CS5)c(Oc4cnc5[nH]ccc5c4)c3)CC2)=C(c2ccc(Cl)cc2)C1` [Example 3-7, (S)-2-((1H-pyrrolo[2,3-b]pyridin-5-yl)oxy)-4-(4-((4′-chloro-5,5-dimethyl-3,4,5,6-tetra-hydro-[1,1′-biphenyl]-2-yl)methyl)piperazin-1-yl)-N-((3-(hydroxymethyl)-5-nitro-3,4-dihydro-2H-benzo[b][1,4]thiazin-7-yl)sulfonyl) benzamide] are 31 nM and 10 nM.
The corresponding values for `CC1(C)CCC(CN2CCN(c3ccc(C(=O)NS(=O)(=O)c4cc5c(c([N+](=O)[O-])c4)N[C@H](CCO)CO5)c(Oc4cnc5[nH]ccc5c4)c3)CC2)=C(c2ccc(Cl)cc2)C1` [Example 2-17, (R)-2-((1H-pyrrolo[2,3-b]pyridin-5-yl)oxy)-4-(4-((4′-chloro-5,5-dimethyl-3,4,5,6-tetra-hydro-[1,1′-biphenyl]-2-yl)methyl)piperazin-1-yl)-N-((3-(2-hydroxyethyl)-5-nitro-3,4-dihydro-2H-benzo[b][1,4]oxazin-7-yl)sulfo-nyl)benzamide] are 20 nM and 8 nM.
Regarding `CC1(C)CCC(CN2CCN(c3ccc(C(=O)NS(=O)(=O)c4cc5c(c([N+](=O)[O-])c4)N[C@H](CN4CC(C)(O)C4)CO5)c(Oc4cnc5[nH]ccc5c4)c3)CC2)=C(c2ccc(Cl)cc2)C1` [Example 2-21, (R)-2-((1H-pyrrolo[2,3-b]pyridin-5-yl)oxy)-4-(4-((4′-chloro-5,5-dimethyl-3,4,5,6-tetra-hydro-[1,1′-biphenyl]-2-yl)methyl)piperazin-1-yl)-N-((3-((3-hydroxy-3-methylazetidin-1-yl)methyl)-5-nitro-3,4-dihydro-2H-ben-zo[b][1,4]oxazin-7-yl)sulfonyl)benzamide], the IC50 was 8 nM in test [1] and 1 nM in test [2].
For `CC1(C)CCC(CN2CCN(c3ccc(C(=O)NS(=O)(=O)c4cc5c(c([N+](=O)[O-])c4)N[C@@H](CCN4CCC(C)(O)CC4)C5)c(Oc4cnc5[nH]ccc5c4)c3)CC2)=C(c2ccc(Cl)cc2)C1` [Example 1-17, (R)-2-((1H-pyrrolo[2,3-b]pyridin-5-yl)oxy)-4-(4-((4′-chloro-5,5-dimethyl-3,4,5,6-tetra-hydro-[1,1′-biphenyl]-2-yl)methyl)piperazin-1-yl)-N-((2-(2-(4-hydroxy-4-methylpiper-idin-1-yl)ethyl)-7-nitroindolin-5-yl)sulfonyl) benzamide], the IC50 in test [1] is 61 nM; in test [2], 56 nM.
The corresponding values for `CC1(C)CCC(CN2CCN(c3ccc(C(=O)NS(=O)(=O)c4cc5c(c([N+](=O)[O-])c4)N[C@H](CCN4CCP(C)(=O)CC4)CO5)c(Oc4cnc5[nH]ccc5c4)c3)CC2)=C(c2ccc(Cl)cc2)C1` [Example 2-155, (R)-2-((1H-pyrrolo[2,3-b]pyridin-5-yl)oxy)-4-(4-((4′-chloro-5,5-dimethyl-3,4,5,6-tetra-hydro-[1,1′-biphenyl]-2-yl)methyl)piperazin-1-yl)-N-((3-(2-(4-methyl-4-oxido-1,4-aza-phosphinan-1-yl)ethyl)-5-nitro-3,4-dihydro-2H-benzo[b][1,4]oxazin-7-yl)sulfonyl) benzamide] are 459 nM and 66 nM.
The corresponding values for `CC(=O)NC[C@H]1COc2cc(S(=O)(=O)NC(=O)c3ccc(N4CCN(CC5=C(c6ccc(Cl)cc6)CC(C)(C)CC5)CC4)cc3Oc3cnc4[nH]ccc4c3)cc([N+](=O)[O-])c2N1` [Example 2-53, (S)-2-((1H-pyrrolo[2,3-b]pyridin-5-yl)oxy)-N-((3-(acetamidomethyl)-5-nitro-3,4-dihydro-2H-benzo[b][1,4]oxazin-7-yl)sulfonyl)-4-(4-((4′-chloro-5,5-dimethyl-3,4,5,6-tetra-hydro-[1,1′-biphenyl]-2-yl)methyl)piperazin-1-yl)benzamide] are 543 nM and 53 nM.
Take `CC1(C)CCC(CN2CCN(c3ccc(C(=O)NS(=O)(=O)c4cc5c(c([N+](=O)[O-])c4)N[C@@H](C4CCN(C(=O)OC(C)(C)C)CC4)CO5)c(Oc4cnc5[nH]ccc5c4)c3)CC2)=C(c2ccc(Cl)cc2)C1` [Example 2-229, tert-butyl (S)-4-(7-(N-(2-((1H-pyrrolo[2,3-b]pyridin-5-yl)oxy)-4-(4-((4′-chloro-5,5-dimethyl-3,4,5,6-tetrahydro-[1,1′-biphenyl]-2-yl)meth-yl)piperazin-1-yl)benzoyl)sulfamoyl)-5-nitro-3,4-dihydro-2H-benzo[b][1,4]oxazin-3-yl)piperidine-1-carboxylate]: the IC50 in test [1] turned out to be 1 nM; in test [2], 38 nM.
As to `CN1CCC([C@@H]2COc3cc(S(=O)(=O)NC(=O)c4ccc(N5CCN(CC6=C(c7ccc(Cl)cc7)CC(C)(C)CC6)CC5)cc4Oc4cnc5[nH]ccc5c4)cc([N+](=O)[O-])c3N2)CC1` [Example 2-227, (R)-2-((1H-pyrrolo[2,3-b]pyridin-5-yl)oxy)-4-(4-((4′-chloro-5,5-dimethyl-3,4,5,6-tetra-hydro-[1,1′-biphenyl]-2-yl)methyl)piperazin-1-yl)-N-((3-(1-methylpiperidin-4-yl)-5-ni-tro-3,4-dihydro-2H-benzo[b][1,4]oxazin-7-yl)sulfonyl)benzamide], the IC50 in test [1] came out at 6 nM; in test [2], 1 nM.
`C[C@@H]1CN(C[C@@H]2COc3cc(S(=O)(=O)NC(=O)c4ccc(N5CCN(CC6=C(c7ccc(Cl)cc7)CCC(C)(C)C6)CC5)cc4Oc4cnc5[nH]ccc5c4)cc([N+](=O)[O-])c3N2)CCN1C1COC1` [Example 2-210, 2-((1H-pyrrolo[2,3-b]pyridin-5-yl)oxy)-4-(4-((4′-chloro-4,4-dimethyl-3,4,5,6-tetrahydro-[1,1′-biphenyl]-2-yl)methyl)piperazin-1-yl)-N-(((R)-3-(((R)-3-methyl-4-(oxetan-3-yl)piperazin-1-yl)methyl)-5-nitro-3,4-dihydro-2H-benzo[b][1,4]oxazin-7-yl)sulfonyl) benzamide]: the values for the IC50 in test [1] and in test [2] were 35 nM and 7 nM, respectively.
The corresponding values for `CC1(C)CCC(CN2CCN(c3ccc(C(=O)NS(=O)(=O)c4cc5c(c([N+](=O)[O-])c4)N[C@@H](c4ccc(S(C)(=O)=O)cc4)CO5)c(Oc4cnc5[nH]ccc5c4)c3)CC2)=C(c2ccc(Cl)cc2)C1` [Example 2-168, (S)-2-((1H-pyrrolo[2,3-b]pyridin-5-yl)oxy)-4-(4-((4′-chloro-5,5-dimethyl-3,4,5,6-tetra-hydro-[1,1′-biphenyl]-2-yl)methyl)piperazin-1-yl)-N-((3-(4-(methylsulfonyl)phenyl)-5-nitro-3,4-dihydro-2H-benzo[b][1,4]oxazin-7-yl)sulfonyl)benzamide] are 32 nM and 33 nM.
Turning to `CC1(C)CCC(CN2CCN(c3ccc(C(=O)NS(=O)(=O)c4cc5c(c([N+](=O)[O-])c4)N[C@H](CO)CS5)c(Oc4cnc5[nH]ccc5c4)c3)CC2)=C(c2ccc(Cl)cc2)C1` [Example 3-5, (R)-2-((1H-pyrrolo[2,3-b]pyridin-5-yl)oxy)-4-(4-((4′-chloro-5,5-dimethyl-3,4,5,6-tetra-hydro-[1,1′-biphenyl]-2-yl)methyl)piperazin-1-yl)-N-((3-(hydroxymethyl)-5-nitro-3,4-dihydro-2H-benzo[b][1,4]thiazin-7-yl)sulfonyl) benzamide], the IC50 amounted to 12 nM in test [1] and 8 nM in test [2].
The corresponding values for `CC1(C)CCC(CN2CCN(c3ccc(C(=O)NS(=O)(=O)c4cc5c(c([N+](=O)[O-])c4)N[C@H](CCN4CCOCC4)CO5)c(Oc4cnc5[nH]ccc5c4)c3)CC2)=C(c2ccc(Cl)cc2)C1` [Example 2-2] are 8 nM and 2 nM.

The values are drawn from patent publication US11091478B2 (Fochon Pharmaceuticals, Ltd., priority 2017, dated 2021).
